Measurements taken from article PMC6027146, “Synthesis and Structure-Activity Relationships of (−)-cis-N-Normetazocine-Based LP1 Derivatives” (Pharmaceuticals, 2018).

Legend:
recombinant human MOR = molecular target: T1, recombinant human MOR (Homo sapiens, UniProt P35372); assay: Calcium mobilization assay, CHO-MOR cells expressing Gαqi5; assay type: cell-based
T1 construct: expressed in transfected cells; gift of Dr. Larry Toll (SRI International); infected with a retrovirus for Gαqi5
Description: CHO cells, expressing human opioid receptors and the Gαqi5 protein, and CHODOR, expressing the GαqG66Di5 protein, were maintained in culture medium consisting of Dulbecco minimum essential medium (DMEM) and Ham F-12 (1:1) (50/50) supplemented with 10% fetal calf serum (FCS), L-glutamine (2 mM), geneticin (200 μg/mL; G418), hygromycin B (100 μg/mL) at 37 °C in 5% CO2 humidified air. When confluence was reached (3–4 days), cells were subcultured as required using trypsin/EDTA, and used for experimentation. The different cell lines were seeded at a density of 50,000–40,000 cells/well into black 96-well, clear-bottomed plates. […] After placing both plates (cell culture and compound plate) into the FlexStation II (Molecular Device, Union City, San Jose, CA 94587, USA), fluorescence changes were measured at room temperature. […] Maximum change in fluorescence, expressed in percent of baseline fluorescence, was used to determine agonist response.
In calcium mobilization experiments, data were analyzed by non-linear curve fitting equation, using GraphPad 5.0 software. […] Ligand efficacy was expressed as intrinsic activity (α), calculated as the ratio between the Emax of the ligand and that of the respective standards. Calcium mobilization data were expressed as FIU (fluorescence intensity units) in percent, over the baseline. […]

recombinant human DOR = molecular target: T2, recombinant human DOR (Homo sapiens, UniProt P41143); assay: Calcium mobilization assay, CHO-DOR cells expressing GαqG66Di5; assay type: cell-based
T2 construct: expressed in transfected cells; supplied by Dr. Eva Varga (University of Arizona); infected with a retrovirus for GαqG66Di5
Description: (§1) The pharmacological characterization of LP1 derivatives 2 and 10–16 was performed by calcium mobilization assay (Table 2). This procedure was preliminarily validated through a series of experiments where the effects of DPDPE, dermorphin, and dynorphin A were assessed in CHO cells expressing the human recombinant opioid receptors and Gαqi5 or GαqG66Di5 chimeric proteins.
(§2) Chinese hamster ovary (CHO) cells expressing the recombinant human MOR and KOR (CHO^MOR and CHO^KOR) were kindly provided by Dr. Larry Toll (SRI International, Menlo Park, CA, USA), and CHO cells expressing the recombinant human DOR (CHO^DOR) were supplied by Dr. Eva Varga (Department of Medical Pharmacology, The University of Arizona, Tucson, AZ, USA). CHO cells lines permanently coexpressing the opioid receptors and the C-terminally modified Gαqi5 were prepared by infecting the CHO lines described above with a recombinant retrovirus expressing the chimeric α subunit and the hygromycin resistance gene. Similarly, CHO cells lines permanently coexpressing DOR and the C-terminally modified GαqG66Di5 were prepared by infecting the CHO lines described above with a recombinant retrovirus expressing the chimeric α subunit and the hygromycin resistance gene. Polyclonal cell lines were generated using the pantropic retroviral expression system form BD-Clontech, as described previously. Stable lines were selected under hygromycin B (100 μg/mL) and geneticin (600 μg/mL) for 2–3 weeks after the infection.
(§3) CHO cells, expressing human opioid receptors and the Gαqi5 protein, and CHODOR, expressing the GαqG66Di5 protein, were maintained in culture medium consisting of Dulbecco minimum essential medium (DMEM) and Ham F-12 (1:1) (50/50) supplemented with 10% fetal calf serum (FCS), L-glutamine (2 mM), geneticin (200 μg/mL; G418), hygromycin B (100 μg/mL) at 37 °C in 5% CO2 humidified air. When confluence was reached (3–4 days), cells were subcultured as required using trypsin/EDTA, and used for experimentation. The different cell lines were seeded at a density of […] into black 96-well, clear-bottomed plates. After 24 h incubation, the cells were loaded with medium supplemented with 2.5 mM probenecid, 3 μM of the calcium sensitive fluorescent dye Fluo-4 AM, and 0.01% pluronic acid, for 30 min at 37 °C. Afterwards, the loading solution was aspirated and 100 μL/well of assay buffer—HBSS supplemented with 20 mM HEPES, 2.5 mM probenecid and 500 μM Brilliant Black (Aldrich, St. Louis, MO, USA)—was added. Serial dilutions of ligands for experimental use were made in HBSS/HEPES (20 mM) buffer (containing 0.005% BSA fraction V). After placing both plates (cell culture and compound plate) into the FlexStation II (Molecular Device, Union City, San Jose, CA 94587, USA), fluorescence changes were measured at room temperature. Online additions were carried out in a volume of 50 μL/well. Antagonists were incubated 15 min before the addition of the agonist. Maximum change in fluorescence, expressed in percent of baseline fluorescence, was used to determine agonist response.
(§4) Analysis of the binding data was performed using the Origin 7.5 software (OriginLab Corporation, Northampton, MA, USA). In calcium mobilization experiments, data were analyzed by non-linear curve fitting equation, using GraphPad 5.0 software. […] Ligand efficacy was expressed as intrinsic activity (α), calculated as the ratio between the Emax of the ligand and that of the respective standards. Calcium mobilization data were expressed as FIU (fluorescence intensity units) in percent, over the baseline. Agonist potencies are given as pEC50 (the negative logarithm to base 10 of the molar concentration of an agonist that produces 50% of the maximal possible effect, Emax). Concentration response curves to agonists were fitted with the following equation: Effect = baseline + (Emax − baseline)/(1+10^(LogEC50 − X) ∗ HillSlope) where X is the agonist concentration. […]

DOR = system: DOR; set-up: method as in PMID 22100511; conditions: 10 nM; cited from earlier work
human-KOR = human-KOR (Homo sapiens, UniProt P41145); assay: Calcium mobilization assay, CHO-KOR cells expressing Gαqi5; assay type: cell-based; set-up: expressed in transfected cells; gift of Dr. Larry Toll (SRI International); infected with a retrovirus for Gαqi5; conditions: agonist mode; Inactive = inactive at 10 μM; crc incomplete = incomplete concentration response curve at 10 μM; listed as LP1 (1)
Description: as §1, §2, §3, §4

T2 sequence (P41143 whole entry): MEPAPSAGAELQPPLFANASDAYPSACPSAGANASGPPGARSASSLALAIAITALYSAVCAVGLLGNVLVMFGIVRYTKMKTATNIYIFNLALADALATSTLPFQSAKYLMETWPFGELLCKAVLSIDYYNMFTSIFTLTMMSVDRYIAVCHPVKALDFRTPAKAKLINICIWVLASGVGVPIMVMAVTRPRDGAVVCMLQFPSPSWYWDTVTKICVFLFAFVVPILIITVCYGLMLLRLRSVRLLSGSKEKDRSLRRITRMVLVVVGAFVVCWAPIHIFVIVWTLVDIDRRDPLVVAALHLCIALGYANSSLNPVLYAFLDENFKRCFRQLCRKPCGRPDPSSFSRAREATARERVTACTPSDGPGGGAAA
T1 sequence (P35372 whole entry): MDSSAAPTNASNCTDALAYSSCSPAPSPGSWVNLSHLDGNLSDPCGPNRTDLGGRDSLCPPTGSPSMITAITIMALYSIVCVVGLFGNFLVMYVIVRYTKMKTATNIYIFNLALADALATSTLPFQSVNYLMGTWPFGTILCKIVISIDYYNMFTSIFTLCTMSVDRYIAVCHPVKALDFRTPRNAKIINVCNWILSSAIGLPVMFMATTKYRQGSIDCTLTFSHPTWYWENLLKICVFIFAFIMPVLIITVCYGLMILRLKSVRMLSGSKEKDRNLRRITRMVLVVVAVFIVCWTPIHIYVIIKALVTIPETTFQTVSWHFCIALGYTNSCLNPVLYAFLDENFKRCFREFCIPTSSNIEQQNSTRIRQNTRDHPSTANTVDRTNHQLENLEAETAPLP
Chain of human-KOR (P41145 whole entry): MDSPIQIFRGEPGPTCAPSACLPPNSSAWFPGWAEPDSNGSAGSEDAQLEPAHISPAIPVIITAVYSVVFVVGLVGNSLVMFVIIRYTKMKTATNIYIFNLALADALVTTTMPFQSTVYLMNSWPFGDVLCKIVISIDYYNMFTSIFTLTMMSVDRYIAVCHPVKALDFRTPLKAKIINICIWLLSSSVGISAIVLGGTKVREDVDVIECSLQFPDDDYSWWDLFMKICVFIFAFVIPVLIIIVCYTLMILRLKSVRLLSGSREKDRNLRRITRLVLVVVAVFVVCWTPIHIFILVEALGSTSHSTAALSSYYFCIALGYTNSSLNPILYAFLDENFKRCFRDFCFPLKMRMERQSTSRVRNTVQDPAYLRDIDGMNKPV

## C[C@H]1[C@H]2Cc3ccc(O)cc3[C@]1(C)CCN2CCC(=O)Nc1ccccc1 [LP1, 3-[(2R,6R,11R)-8-hydroxy-6,11-dimethyl-1,4,5,6-tetrahydro-2,6-methano-3-benzazocin-3(2H)-yl]-N-phenylpropanamide, reference compound]
Recombinant human MOR
  EC50: 97.7 nM
Recombinant human MOR; ratio of Emax of ligand to that of the standard
  intrinsic activity (α) at MOR: 0.40 ± 0.020
Recombinant human DOR
  EC50: 1120 nM
Recombinant human DOR; calcium mobilization
  functional profile at DOR: partial DOR agonist
DOR
  inhibition of [35S]GTPγS binding: 30%
human-KOR
  KOR pEC50 (CL95%): crc incomplete ^d
